According to PubChem BioAssay AID588735 (Vanderbilt Specialized Chemistry Center, 2011):

Target: Metabotropic glutamate receptor 5 (Rattus norvegicus) (UniProt P31424)
Assay: PubChem AID 588735
Conditions: HEK293 rat mGluR5, calcium fluorescence, at 10 µM, stronger effect = higher value

Metabotropic glutamate receptor 5 (Rattus norvegicus), sequence (P31424 whole entry, looked up): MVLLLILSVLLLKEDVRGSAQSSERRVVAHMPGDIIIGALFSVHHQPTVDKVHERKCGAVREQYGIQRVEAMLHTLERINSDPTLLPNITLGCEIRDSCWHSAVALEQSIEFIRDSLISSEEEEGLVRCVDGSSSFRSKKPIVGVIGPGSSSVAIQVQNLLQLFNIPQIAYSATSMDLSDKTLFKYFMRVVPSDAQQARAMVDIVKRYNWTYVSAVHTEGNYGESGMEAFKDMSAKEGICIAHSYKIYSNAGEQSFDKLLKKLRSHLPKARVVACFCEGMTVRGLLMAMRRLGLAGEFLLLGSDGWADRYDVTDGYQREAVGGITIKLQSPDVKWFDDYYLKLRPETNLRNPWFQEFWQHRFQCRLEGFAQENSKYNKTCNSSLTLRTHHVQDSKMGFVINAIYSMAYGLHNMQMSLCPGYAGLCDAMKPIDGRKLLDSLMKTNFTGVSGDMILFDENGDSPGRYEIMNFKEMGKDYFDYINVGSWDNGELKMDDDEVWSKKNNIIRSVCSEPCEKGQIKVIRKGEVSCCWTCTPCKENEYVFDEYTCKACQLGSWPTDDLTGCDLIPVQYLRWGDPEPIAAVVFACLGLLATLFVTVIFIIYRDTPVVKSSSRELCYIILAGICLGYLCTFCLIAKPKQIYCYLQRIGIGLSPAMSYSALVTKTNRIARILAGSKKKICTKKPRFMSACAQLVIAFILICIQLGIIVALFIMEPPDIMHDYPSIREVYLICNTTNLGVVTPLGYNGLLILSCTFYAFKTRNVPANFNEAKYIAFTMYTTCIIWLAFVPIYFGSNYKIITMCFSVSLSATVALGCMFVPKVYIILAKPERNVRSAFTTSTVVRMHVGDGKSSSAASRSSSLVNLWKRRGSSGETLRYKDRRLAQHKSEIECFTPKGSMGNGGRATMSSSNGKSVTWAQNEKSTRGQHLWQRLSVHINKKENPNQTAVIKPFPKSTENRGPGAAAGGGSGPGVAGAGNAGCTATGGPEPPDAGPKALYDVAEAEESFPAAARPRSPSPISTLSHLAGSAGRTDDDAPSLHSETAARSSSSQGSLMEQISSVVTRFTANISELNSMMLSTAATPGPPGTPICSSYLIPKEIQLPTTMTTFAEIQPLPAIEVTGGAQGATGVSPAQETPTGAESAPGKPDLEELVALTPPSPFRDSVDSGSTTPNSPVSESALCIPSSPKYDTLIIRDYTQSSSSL

C[C@@H](NC(=O)c1ccc(C#Cc2cccc(F)c2)cn1)C(C)(C)O
fold shift: 4.6
Emax (glutamate fold shift, glutamate max response with compound): 62%
Emin (glutamate fold shift, glutamate min response (ago-PAM)): 45%
